Test results from patent US10266549B2, “ULK1 inhibitors and methods using same” (SALK INSTITUTE FOR BIOLOGICAL STUDIES, priority 2014, dated 2019).

Key:
[1] = test system: endogenous ULK1; experiment: endogenous ULK1 activity in MEFs: mobility shift of Beclin1 and Atg13; format: cell-based, mouse; details: WT MEFs, 10 μM co-treatment, 1 hr
Description: FIG. 7D: WT or Ulk1/Ulk2 double knockout mouse embryonic fibroblasts (MEFs) were treated with fresh media (Dulbecco's modified Eagle medium [DMEM] containing 10% FBS) containing 1-μM INK128, 1-μM AZD8055, or DMSO or with starvation media (EBSS) in the presence or absence of 10 μM compound 14. Cellular lysates were isolated after 1 hr of treatment and immunoblotted with the indicated antibodies. Asterisk denotes non-specific band.
We next examined whether compound 14 inhibits endogenous ULK1 activity. To activate endogenous ULK1, we treated MEFs with either amino acid starvation media (Earle's balanced salt solution [EBSS]) or the mTOR ATP-competitive inhibitors INK128 or AZD8055. In WT MEFs, we observed a mobility shift in endogenous Beclin1 and Atg13 in response to EBSS starvation media or the mTOR catalytic inhibitors, which was abolished in Ulk1/2-deficient MEFs (FIG. 7D). […] In certain embodiments, the mobility shifts observed in endogenous Beclin1 and Atg13 induced by mTOR inhibitors and starvation media reflect phosphorylation of endogenous Beclin1/Atg13 by endogenous ULK1/2 as they only occur in WT but not Ulk1/2-deficient MEFs.

[2] = target: WT ULK2 (Homo sapiens (Human), UniProt Q8IYT8); experiment: in vitro kinase assay, WT ULK2, MBP substrate, radiolabeled ATP; format: biochemical; details: 10-μM MBP, 30-μM γ-32P-ATP; triplicate, ten-dose, 3-fold serial dilution from 1 μM
Description: WT ULK1 (left) and WT ULK2 (right) were assayed using 10-μM MBP in the presence of 30-μM radiolabeled γ-^32P-ATP.
To further examine how ULK1 regulates autophagy, we sought to identify small molecule ATP competitive kinase inhibitors of ULK1. Screening a library of chemical compounds for inhibitors of ULK1 kinase activity in vitro, we identified a lead compound that was further elaborated through a medicinal chemistry effort to produce compound 14. […] To further characterize the ability of compound 14 and related derivatives to inhibit ULK1 in cells, we tested the ability of these compounds to inhibit the phosphorylation of Vps34 Ser249 when epitope-tagged Vps34 was co-expressed in HEK293T cells with a wild-type ULK1 cDNA. Screening 40 compounds, we found compound 14 inhibited P-Vps34 on overexpressed Vps34 when used at ˜5 μM (FIG. 7B). We next examined the sensitivity of phosphorylation of Vps34 Serine 249 versus Beclin Serine 15 to two structurally distinct ULK1 inhibitors, when cDNAs bearing each were introduced into HEK293T cells. […] (FIG. 11A).

[3] = test system: murine Kras p53 lung carcinoma cells; experiment: AnnexinV apoptosis in Kras p53 lung carcinoma cells; format: cell-based; details: selectively in the nutrient-starved state
Description: For flow cytometry analysis, cells were collected at the appropriate time point, washed once in PBS, trypsinized and pelleted. For Annexin V staining, cells were washed in 1× Annexin V buffer and treated as described by the Annexin V staining protocol (BD Pharmingen, San Diego, Calif.). Briefly, cells were resuspended in Annexin V buffer to a concentration of one million per mL, 100,000 cells were then stained with 5 μL of phycoerythrin (PE)-conjugated Annexin V antibody (BD Pharmingen, San Diego, Calif.) and 5 μL of 7-amino-actinomycin D (7AAD) and then incubated at room temperature for 15 minutes. 400 μL of Annexin V buffer was then added to each sample with gentle mixing. Stained cells were analyzed using a FACScan flow cytometer (Becton Dickinson, San Jose, Calif.). Flow cytometry data was analyzed using FlowJo 8.6 software (Tree Star Inc., Ashland, Oreg.).
There has been great interest in the role of autophagy in the survival of tumor cells, particular tumor cells faced with metabolic stress from chemotherapies or targeted therapeutics. We next examined whether compound 14 would promote apoptosis in tumor cells similar to the MEFs, selectively under conditions in which autophagy is actively engaged. […]

WT ULK2, sequence (Q8IYT8 whole entry): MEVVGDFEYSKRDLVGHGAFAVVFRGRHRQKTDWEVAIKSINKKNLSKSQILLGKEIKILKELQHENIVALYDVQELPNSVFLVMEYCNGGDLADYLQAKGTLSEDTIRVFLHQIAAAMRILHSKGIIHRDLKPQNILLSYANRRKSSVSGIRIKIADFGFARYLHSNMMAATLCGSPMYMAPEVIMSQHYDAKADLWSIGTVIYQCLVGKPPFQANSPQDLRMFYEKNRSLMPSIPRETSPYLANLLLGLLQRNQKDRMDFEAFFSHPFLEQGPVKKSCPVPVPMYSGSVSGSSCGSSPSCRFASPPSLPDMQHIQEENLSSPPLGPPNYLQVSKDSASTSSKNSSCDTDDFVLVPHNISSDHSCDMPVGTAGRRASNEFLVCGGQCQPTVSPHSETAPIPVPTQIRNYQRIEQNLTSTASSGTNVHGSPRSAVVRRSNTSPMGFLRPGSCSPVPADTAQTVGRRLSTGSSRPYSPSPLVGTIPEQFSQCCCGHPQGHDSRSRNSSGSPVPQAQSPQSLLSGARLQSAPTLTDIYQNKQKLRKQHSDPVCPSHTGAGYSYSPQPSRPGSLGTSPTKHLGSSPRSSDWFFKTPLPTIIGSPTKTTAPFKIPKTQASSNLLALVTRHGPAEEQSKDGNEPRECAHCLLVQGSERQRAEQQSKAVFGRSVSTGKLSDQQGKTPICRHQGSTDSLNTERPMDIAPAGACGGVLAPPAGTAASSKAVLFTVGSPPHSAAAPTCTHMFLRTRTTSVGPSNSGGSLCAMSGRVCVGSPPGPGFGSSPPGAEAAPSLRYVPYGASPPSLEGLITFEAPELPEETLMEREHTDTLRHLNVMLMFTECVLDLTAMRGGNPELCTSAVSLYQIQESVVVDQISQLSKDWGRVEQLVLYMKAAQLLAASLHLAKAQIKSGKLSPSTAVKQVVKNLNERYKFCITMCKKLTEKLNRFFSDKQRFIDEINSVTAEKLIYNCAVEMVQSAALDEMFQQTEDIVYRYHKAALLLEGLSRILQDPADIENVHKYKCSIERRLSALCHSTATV

CNC(=O)c1ccccc1Nc1nc(Nc2cc(OC)c(OC)c(OC)c2)ncc1Br [compound 14, 2-(5-bromo-2-(3,4,5-trimethoxyphenylamino)pyrimidin-4-ylamino)-N-methylbenzamide]
EBSS and mTOR-inhibitor induced mobility shift in Beclin1 and Atg13 [1]: inhibited | IC50 [2]: 0.711 µM | apoptosis (AnnexinV+ cells) [3]: promoted apoptosis
